Test system: plucked human hair follicles
Assay: ex vivo culture of plucked human hair
Type: cell-based
Details: 0.25 mM; 5 days of exposure; no other growth factors
Protocol: Plucked human hair with evident presence of the bulb area were immersed immediately after collection in cell growth media. Some of the hair samples were exposed to with lipid-modified protein/MBCD complexes (loaded MBCD) from embryonic stem cell culture as described in Example 2 (referred to as active ingredient), or unloaded MBCD as control, at the same concentration of 0.25 mM of the cyclodextrin component. No other growth factors (e.g., EGF, KGF, etc) were used in the hair follicle cultures.

methyl-β-cyclodextrin [unloaded MBCD]
status of follicles in culture: underwent senescence and detached from the substrate
